Assays:
Grade II GI GVHD = settings: capsule form, 8 mg/day divided into 4 equal doses; cited from earlier work
[1] = system: patients with Grade II GVHD with gastrointestinal symptoms; settings: oral BDP 8 mg/day for 30 days as adjuvant to prednisone; cited from earlier work
[2] = system: gastrointestinal GVHD patients; settings: cited from earlier work
[3] = system: patients with Grade II GVHD with GI symptoms; experiment: Phase III trial: survival/mortality through 200 days post-transplant; assay type: in vivo, human
Experimental: 5. To compare the treatment groups with respect to total deaths and cause of death through 200 days post-transplant.
(§1) The randomization was stratified by the source of the allograft (two HLA haplotype identical sibling versus all other), and by topical corticosteroid use (yes versus no). All patients received 10 days of prednisone at 1 mg/kg/day (or an equivalent dose of intravenous [IV] corticosteroid). On Study Day 10, patients determined by the investigator to have their GVHD controlled had their prednisone tapered rapidly over 7 days starting on Study Day 11, and received a maintenance prednisone dose of 0.0625 mg/kg/day for the remainder of the study. BDP doses were evenly divided to include equal quantities of the IR and EC formulations administered four times per day.
7. Patient survival through day 200 post-transplant.
One hundred and twenty-nine (129) post-bone marrow transplant patients presenting with Grade II iGVHD were enrolled in the randomized, double-blind, placebo-controlled, multi-center clinical trial, which was conducted at 16 bone marrow transplant centers in the United States and France. All patients in the Phase III clinical trial were initially treated with a constant daily dose of high dose (1-2 mg/kg) prednisone, which is the current standard therapy, in combination with an oral dose of either orBec® (8 mg/day) or placebo for the first 10 days. On day 10, if patients were responding to treatment, the high dose prednisone was rapidly tapered and patients continued to receive either orBec® or placebo orally for an additional forty days. The primary endpoint of the study was a comparison between the two treatment arms of the time to treatment failure, defined as the need for additional therapies due to uncontrolled signs or symptoms of GVHD. Secondary endpoints in the study included a comparison of the proportion of treatment failures and clinical scores at 10 Days, 30 Days, 50 Days, 60 Days and 80 Days post-randomization, a comparison of cumulative exposure to systemic steroids, as well as a comparison of mortality at Day 200 post-transplant.

[4] = system: patients with Grade II GVHD with GI symptoms; experiment: Phase III randomized, double-blind, placebo-controlled trial: treatment failure with oral BDP plus 10 days of prednisone; assay type: in vivo, human; settings: for Cumulative events (treatment failures): full analysis set, 62 randomized
Source text: The Secondary objectives of the study were:
To be eligible for entry into the study, patients were at least 10 days post allogeneic hematopoietic cell transplantation, have GI symptoms consistent with Grade II GVHD, and had endoscopic evidence of GVHD. The diagnosis of GVHD was confirmed by biopsy of the intestine (esophagus, stomach, small intestine, or colon) or skin. A total of 129 eligible patients were randomized to one of two treatment groups.
as §1
1. Treatment failure, defined as use of prednisone or equivalent IV corticosteroids at doses higher than stated in protocol, or addition of other immunosuppressant medications.
The primary efficacy endpoint of this two-arm study was the time to treatment failure. The primary efficacy analysis will compare the time to treatment failure through Study Day 50 using a log-rank test controlling for patient randomization stratum. Product-limit estimates for time to failure will be provided for descriptive purposes. The null hypothesis for the log-rank test is that time to failure is homogeneous across the treatment groups.
Secondary analyses of treatment failure compared the treatment groups with respect to proportion of treatment failures and Karnofsky Scale (or Lansky Scale) scores at key time points. The difference in proportion of treatment failures on Study Days 10, 30, 50, 60, and 80 was evaluated using a two-sided Fisher's Exact test of the null hypothesis of no difference between the treatment groups. The difference in Karnofsky Scale (or Lansky Scale) scores at the same time points was evaluated using a two-sided Wilcoxon test to evaluate the null hypothesis of no difference in medians between treatment groups.
On Study Day 10, patients were evaluated for the signs and symptoms of GVHD. Patients in both treatment groups who met the response criterion of adequately controlled GVHD, as judged by the investigator, had their prednisone tapered over 7 days starting on Study Day 11 (Table 2). Starting on Study Day 17, physiologic replacement doses of prednisone were given for the remainder of the study. If the investigator determined that GVHD was not controlled on Study Day 10, patients discontinued study drug but continued prednisone initially at 1 mg/kg/day; these patients were considered to be treatment failures. In treatment failure cases, physicians subsequently modifiedy prednisone dosage as deemed appropriate.
One hundred and twenty-nine (129) post-bone marrow transplant patients presenting with Grade II iGVHD were enrolled in the randomized, double-blind, placebo-controlled, multi-center clinical trial, which was conducted at 16 bone marrow transplant centers in the United States and France. All patients in the Phase III clinical trial were initially treated with a constant daily dose of high dose (1-2 mg/kg) prednisone, which is the current standard therapy, in combination with an oral dose of either orBec® (8 mg/day) or placebo for the first 10 days. On day 10, if patients were responding to treatment, the high dose prednisone was rapidly tapered and patients continued to receive either orBec® or placebo orally for an additional forty days. […]

[5] = up to 28 days of BDP 8 mg/day, both groups (taking prednisone or not)
[6] = 200 days post-transplant, safety population, 61 evaluable
[7] = orBec n = 62, p 0.006 vs placebo

CCC(=O)OCC(=O)[C@@]1(OC(=O)CC)[C@@H](C)C[C@H]2[C@@H]3CCC4=CC(=O)C=C[C@]4(C)[C@@]3(Cl)[C@@H](O)C[C@@]21C [BDP, Beclomethasone 17,21-dipropionate]
clinical benefit in treatment of Grade II GI GVHD (Grade II GI GVHD): provide clinical benefit | gastrointestinal symptoms (nausea, vomiting, diarrhea) versus placebo group [1]: all improved | proportion of patients with increased oral caloric intake versus prednisone plus placebo [1]: significantly higher proportion | study drug associated adverse events reported ([2]; BDP 8 mg/day for 28 days): mild metallic taste and mild peri-umbilical heaviness | treatment-related adverse events ([2]; BDP 8 mg/day for 28 days): No significant treatment-related adverse events were observed | timing of response versus historical high dose prednisone ([2]; BDP alone group): appeared to be slower | gastrointestinal symptoms versus baseline [2, 5]: abatement of most gastrointestinal symptoms | oral food intake versus baseline [2, 5]: increase in oral food intake | Survival status: Alive, number of subjects [3, 6]: 56 | Survival status: Alive, percent of subjects [3, 6]: 92% | Survival status: Dead, number of subjects [3, 6]: 5 | Survival status: Dead, percent of subjects [3, 6]: 8% | reduction in mortality versus placebo group ([3]; Day 200 post-transplant period): 70% | Mortality Rate at 200 Days Post-Transplant [3, 7]: 8% | Mortality at 200 Days Post-Transplant, number of deaths [3, 7]: 5 | Day 200 survival rate ([3]; safety population, Z = 2.750, P = 0.0060 vs placebo): 0.91 | Cumulative treatment failure rate (Kaplan-Meier estimate) ([4]; Study day 10, P = 0.1538 vs placebo): 0.14 | Cumulative events (treatment failures) ([4]; Study day 10): 8 | Cumulative treatment failure rate (Kaplan-Meier estimate) ([4]; Study day 30, P = 0.3625 vs placebo): 0.25 | Cumulative events (treatment failures) ([4]; Study day 30): 15 | Cumulative treatment failure rate (Kaplan-Meier estimate) ([4]; Study day 50, P = 0.0515 vs placebo): 0.31 | Cumulative events (treatment failures) ([4]; Study day 50): 18 | Cumulative treatment failure rate (Kaplan-Meier estimate) ([4]; Study day 60, P = 0.0558 vs placebo): 0.33 | Cumulative events (treatment failures) ([4]; Study day 60): 19 | Cumulative treatment failure rate (Kaplan-Meier estimate) ([4]; Study day 80, P = 0.0048 vs placebo): 0.39 | Cumulative events (treatment failures) ([4]; Study day 80): 22 | time to treatment failure through Day 50 (primary endpoint) versus placebo ([4]; log-rank, p-value 0.1177): did not achieve statistical significance | Treatment Failure Rate at Study Day 80 ([4]; orBec 8 mg/day for 50 days + prednisone, n = 62, p 0.0048 vs placebo): 39% | Treatment Failure Rate at Study Day 50 ([4]; orBec 8 mg/day for 50 days + prednisone, n = 62, p 0.0515 vs placebo): 31% | time to treatment failure through Day 80 (secondary endpoint) versus placebo ([4]; p-value 0.0226): did achieve statistical significance

— patent US20060252735A1, “Treatment of graft-versus-host disease and leukemia with beclomethasone dipropionate and prednisone” (DOR BioPharma, Inc., priority 2004, published 2006)
